According to patent US20090181369A1, “Methods for the Treatment of Disease” (priority 2005, published 2009):
pIC50: −log10 of the molar value.

Columns and labels:
FTase, β subunit W106R = FTase, β subunit W106R (Homo sapiens, UniProt P49356, W106R); conditions: all drug concentrations
[1] = tested on: BaF3 cells expressing wild-type FNTB; assay: cells; conditions: Mus musculus, BaF3, 336 h, read-out: Cellular IC50
[2] = tested on: BaF3 cells expressing FNTB P152S; assay: cells; conditions: Mus musculus, BaF3, 336 h, read-out: Cellular IC50
[3] = tested on: BaF3 cells expressing FNTB G241E; assay: cells; conditions: Mus musculus, BaF3, 336 h, read-out: Cellular IC50
[4] = patients, reported (ref. 8); cited from earlier work
[5] = tested on: BaF3 cells expressing FNTB C95R; assay: soft agar colony assay (cellular IC50); conditions: Mus musculus, BaF3, 336 h, read-out: Cellular IC50
[6] = tested on: BaF3 cells expressing FNTB W106R; assay: soft agar colony assay (cellular IC50); conditions: Mus musculus, BaF3, 336 h, read-out: Cellular IC50
[7] = tested on: chronic myeloid leukemia (CML); conditions: chronic phase CML patients; cited from earlier work

| HDJ2 farnesylation by western blot (FTase, β subunit W106R) [%] | pIC50 [1] | pIC50 [2] | pIC50 [3] | pIC50 [5] | pIC50 [6] | SMILES | trough plasma concentrations [4] [µM] | response rate [7] |
| --- | --- | --- | --- | --- | --- | --- | --- | --- |
| 100 | 7.05 | 6.52 | 6.22 | 5.74 | < 5.00 | NC(=O)N1CCC(CC(=O)N2CCC([C@H]3c4ncc(Br)cc4CCc4cc(Cl)cc(Br)c43)CC2)CC1 [Lonafarnib, (+)-4-[2-[4-(8-Chloro-3,10-dibromo-6,11-dihydro-5H-benzo[5,6]cyclohepta[1,2-b]-pyridin-11(R)-yl)-1-piperidinyl]-2-oxo-ethyl]-1-piperidinecarboxamide] | 1.5 | – |
| – | – | – | – | – | – | Cc1ccc(NC(=O)c2ccc(CN3CCN(C)CC3)cc2)cc1Nc1nccc(-c2cccnc2)n1 [imatinib] | – | over 90% |
